In patent US9738642B2, “Triazolopyridine ether derivatives and their use in neurological and pyschiatric disorders” (BRISTOL-MYERS SQUIBB COMPANY, priority 2013, dated 2017):
Structures can show the parent of a compound that is named as a salt. Where two headings read alike, the source gives them in different places.

Target: T1, human mGluR2 (Homo sapiens, UniProt Q14416)
T1 construct: expressed in transfected cells; host or cells: HEK293 clonal line
Experiment: mGluR2 cAMP assay
Assay type: cell-based
Details: clonally expressed human mGluR2 in HEK293, 1 μM forskolin, 1 μM LY-341495, 30 min, CISBIO cAMP kit
Protocol: On the day of the assay, media was removed, cells washed with PBS, cells harvested and pelleted by centrifugation. Cell pellets were resuspended in stimulation buffer without forskolin and counted. […] A standard curve was created using a top concentration of cAMP of 1 μM in the stimulation buffer, 1:3 dilutions over 14 points in the absence of cells. […] In house software converted the fluorescence value ratios to units of cAMP concentration, which is then used to calculate % inhibition for each test compound. MGluR2 cAMP Assay Materials and Methods. […] Buffer without forskolin was used as a negative control. Solutions of D2 and cryptate detection reagents from the CISBIO dynamic cAMP kit (62AM4PEJ) were diluted 1:40 in lysis buffer. Lysis buffer consisted of 50 mM Phosphate Buffer pH 7.0, 800 mM Potassium Fluoride, 0.2% BSA, and 1.0% Triton. Assay reaction was terminated by addition of detection reagents in lysis buffer. One hour later, plates were read on a PE Viewlux. Data was extracted, and concentration response curves generated by fitting the data to a standard 4 parameter logistic equation from which EC50 values were determined.

[1] = read-out: EC50 (nM), activity in mGluR2 cAMP assay

T1 sequence (Q14416 19-872): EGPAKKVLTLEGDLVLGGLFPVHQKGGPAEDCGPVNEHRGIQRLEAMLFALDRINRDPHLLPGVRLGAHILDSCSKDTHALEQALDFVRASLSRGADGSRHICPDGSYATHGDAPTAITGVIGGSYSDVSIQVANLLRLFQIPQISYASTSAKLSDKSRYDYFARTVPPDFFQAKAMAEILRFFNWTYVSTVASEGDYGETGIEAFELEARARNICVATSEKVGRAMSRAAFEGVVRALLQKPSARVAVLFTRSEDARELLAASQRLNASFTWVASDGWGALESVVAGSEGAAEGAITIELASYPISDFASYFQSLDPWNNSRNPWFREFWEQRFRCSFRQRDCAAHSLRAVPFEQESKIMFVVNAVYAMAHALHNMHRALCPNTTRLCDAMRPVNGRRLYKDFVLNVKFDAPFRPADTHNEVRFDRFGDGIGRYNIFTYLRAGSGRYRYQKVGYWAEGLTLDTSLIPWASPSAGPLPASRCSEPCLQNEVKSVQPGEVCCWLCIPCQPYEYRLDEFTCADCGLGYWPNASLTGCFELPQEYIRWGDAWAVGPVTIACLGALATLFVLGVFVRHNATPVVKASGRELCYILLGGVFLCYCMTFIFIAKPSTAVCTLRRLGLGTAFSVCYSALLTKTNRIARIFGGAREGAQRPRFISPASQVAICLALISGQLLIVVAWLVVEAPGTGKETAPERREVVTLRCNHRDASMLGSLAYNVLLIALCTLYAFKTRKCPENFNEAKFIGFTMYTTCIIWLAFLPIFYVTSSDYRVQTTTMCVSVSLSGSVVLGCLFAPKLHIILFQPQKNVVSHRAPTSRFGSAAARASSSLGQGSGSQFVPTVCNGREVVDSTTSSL

| EC50 [1] | SMILES | EC50 (EC50 (nM), activity in mGluR2 cAMP assay) |
| --- | --- | --- |
| 2.2 nM | N#C[C@]1(c2cc(F)cc(F)c2)C[C@H](Oc2ccn3c(CC4CC4)nnc3c2C(F)(F)F)C1 [Example 54, (1s,3s)-3-(3-(Cyclopropylmethyl)-8-(trifluoromethyl)-[1,2,4]triazolo[4,3-a]pyridin-7-yloxy)-1-(3,5-difluorophenyl)cyclobutanecarbonitrile] | – |
| 20 nM | Fc1cc(F)cc(C2(COc3ccn4c(CC5CC5)nnc4c3C(F)(F)F)CC2)c1 [Example 55, 3-(Cyclopropylmethyl)-7-((1-(3,5-difluorophenyl)cyclopropyl)methoxy)-8-(trifluoromethyl)-[1,2,4]triazolo[4,3-a]pyridine] | – |
| 22 nM | FC(F)(F)c1c(OCC2(c3cc(Cl)cc(Cl)c3)CC2)ccn2c(CC3CC3)nnc12 [Example 56, 3-(Cyclopropylmethyl)-7-((1-(3,5-dichlorophenyl)cyclopropyl)methoxy)-8-(trifluoromethyl)-[1,2,4]triazolo[4,3-a]pyridine] | – |
| 60 nM | Clc1ccc(COc2ccn3c(CC4CC4)nnc3c2Cl)cc1 [Example 58, 8-Chloro-7-(4-chlorobenzyloxy)-3-(cyclopropylmethyl)-[1,2,4]triazolo[4,3-a]pyridine, TFA salt] | – |
| 530 nM | CC(Oc1ccn2c(CC3CC3)nnc2c1Cl)c1ccc(F)cc1 (stereo not shown) [Example 59, 8-Chloro-3-(cyclopropylmethyl)-7-(1-(4-fluorophenyl)ethoxy)-[1,2,4]triazolo[4,3-a]pyridine] | – |
| 18 nM | Clc1cccc(COc2ccn3c(CC4CC4)nnc3c2Cl)c1 [Example 60, 8-Chloro-7-(3-chlorobenzyloxy)-3-(cyclopropylmethyl)-[1,2,4]triazolo[4,3-a]pyridine] | – |
| 40 nM | COc1cccc(COc2ccn3c(CC4CC4)nnc3c2Cl)c1 [Example 61, 8-Chloro-3-(cyclopropylmethyl)-7-(3-methoxybenzyloxy)-[1,2,4]triazolo[4,3-a]pyridine] | – |
| 270 nM | Clc1c(OCCCc2cccnc2)ccn2c(CC3CC3)nnc12 [Example 62, 8-Chloro-3-(cyclopropylmethyl)-7-(3-(pyridin-3-yl)propoxy)-[1,2,4]triazolo[4,3-a]pyridine] | – |
| 100 nM | Clc1c(OCCOc2ccccc2)ccn2c(CC3CC3)nnc12 [Example 63, 8-Chloro-3-(cyclopropylmethyl)-7-(2-phenoxyethoxy)-[1,2,4]triazolo[4,3-a]pyridine] | – |
| 32 nM | Clc1c(OCCc2ccccc2)ccn2c(CC3CC3)nnc12 [Example 64, 8-Chloro-3-(cyclopropylmethyl)-7-phenethoxy-[1,2,4]triazolo[4,3-a]pyridine] | – |
| 110 nM | COc1cc(COc2ccn3c(CC4CC4)nnc3c2Cl)ccc1F [Example 65, 8-Chloro-3-(cyclopropylmethyl)-7-(4-fluoro-3-methoxybenzyloxy)-[1,2,4]triazolo[4,3-a]pyridine] | – |
| 11 nM | Clc1ccccc1COc1ccn2c(CC3CC3)nnc2c1Cl [Example 66, 8-Chloro-7-(2-chlorobenzyloxy)-3-(cyclopropylmethyl)-[1,2,4]triazolo[4,3-a]pyridine] | – |
| 55 nM | Cc1cccc(COc2ccn3c(CC4CC4)nnc3c2Cl)c1 [Example 67, 8-Chloro-3-(cyclopropylmethyl)-7-(3-methylbenzyloxy)-[1,2,4]triazolo[4,3-a]pyridine] | – |
| 68 nM | Fc1ccccc1COc1ccn2c(CC3CC3)nnc2c1Cl [Example 68, 8-Chloro-3-(cyclopropylmethyl)-7-(2-fluorobenzyloxy)-[1,2,4]triazolo[4,3-a]pyridine] | – |
| 32 nM | Clc1ccc(COc2ccn3c(CC4CC4)nnc3c2Cl)cc1Cl [Example 69, 8-Chloro-3-(cyclopropylmethyl)-7-(3,4-dichlorobenzyloxy)-[1,2,4]triazolo[4,3-a]pyridine] | – |
| 140 nM | COc1ccc(COc2ccn3c(CC4CC4)nnc3c2Cl)cc1 [Example 70, 8-Chloro-3-(cyclopropylmethyl)-7-(4-methoxybenzyloxy)-[1,2,4]triazolo[4,3-a]pyridine] | – |

| EC50 [1] | SMILES | EC50 (EC50 (nM), activity in mGluR2 cAMP assay) |
| --- | --- | --- |
| 11 nM | Fc1cccc(F)c1COc1ccn2c(CC3CC3)nnc2c1Cl [Example 71, 8-Chloro-3-(cyclopropylmethyl)-7-(2,6-difluorobenzyloxy)-[1,2,4]triazolo[4,3-a]pyridine] | – |
| 42 nM | COc1cccc(F)c1COc1ccn2c(CC3CC3)nnc2c1Cl [Example 72, 8-Chloro-3-(cyclopropylmethyl)-7-(2-fluoro-6-methoxybenzyloxy)-[1,2,4]triazolo[4,3-a]pyridine] | – |
| 22 nM | FC(F)(F)Oc1ccc(Cl)cc1COc1ccn2c(CC3CC3)nnc2c1Cl [Example 73, 8-Chloro-7-(5-chloro-2-(trifluoromethoxy)benzyloxy)-3-(cyclopropylmethyl)-[1,2,4]triazolo[4,3-a]pyridine] | – |
| 21 nM | COc1ccc(F)cc1COc1ccn2c(CC3CC3)nnc2c1Cl [Example 74, 8-Chloro-3-(cyclopropylmethyl)-7-(5-fluoro-2-methoxybenzyloxy)-[1,2,4]triazolo[4,3-a]pyridine] | – |
| 29 nM | Clc1c(OCc2cccc(OC3CC3)c2)ccn2c(CC3CC3)nnc12 [Example 75, 8-Chloro-7-(3-cyclopropoxybenzyloxy)-3-(cyclopropylmethyl)-[1,2,4]triazolo[4,3-a]pyridine] | – |
| 4.1 nM | Fc1cc(F)cc(COc2ccn3c(CC4CC4)nnc3c2Cl)c1 [Example 76, 8-Chloro-3-(cyclopropylmethyl)-7-(3,5-difluorobenzyloxy)-[1,2,4]triazolo[4,3-a]pyridine] | – |
| 0.4 nM | Fc1cccc(Cl)c1CCOc1ccn2c(CC3CC3)nnc2c1C(F)(F)F [Example 80, 7-(2-Chloro-6-fluorophenethoxy)-3-(cyclopropylmethyl)-8-(trifluoromethyl)-[1,2,4]triazolo[4,3-a]pyridine] | – |
| 1.5 nM | Fc1cccc(F)c1CCOc1ccn2c(CC3CC3)nnc2c1C(F)(F)F [Example 81, 3-(Cyclopropylmethyl)-7-(2,6-difluorophenethoxy)-8-(trifluoromethyl)-[1,2,4]triazolo[4,3-a]pyridine] | – |
| 20 nM | Clc1cc(COc2ccn3c(CC4CC4)nnc3c2Cl)nc(Cl)n1 [Example 82, 8-Chloro-3-(cyclopropylmethyl)-7-((2,6-dichloropyrimidin-4-yl)methoxy)-[1,2,4]triazolo[4,3-a]pyridine] | – |
| 6.1 nM | FC(F)(F)c1c(OCC(F)(F)c2ccccc2)ccn2c(CC3CC3)nnc12 [Example 83, 3-(Cyclopropylmethyl)-7-(2,2-difluoro-2-phenylethoxy)-8-(trifluoromethyl)-[1,2,4]triazolo[4,3-a]pyridine] | – |
| 35 nM | CO[C@]1(c2ccc(F)cc2)CC[C@H](Oc2ccn3c(C4CC4)nnc3c2C(F)(F)F)CC1 [Example 92, 3-Cyclopropyl-7-((1s,4s)-4-(4-fluorophenyl)-4-methoxycyclohexyloxy)-8-(trifluoromethyl)-[1,2,4]triazolo[4,3-a]pyridine] | – |
| 20 nM | CO[C@]1(c2ccc(F)cc2)CC[C@H](Oc2ccn3c(C4CC(F)(F)C4)nnc3c2C(F)(F)F)CC1 [Example 93, 3-(3,3-Difluorocyclobutyl)-7-((1s,4s)-4-(4-fluorophenyl)-4-methoxycyclohexyloxy)-8-(trifluoromethyl)-[1,2,4]triazolo[4,3-a]pyridine] | – |
| 1 nM | O[C@]1(c2ccc(F)cc2)CC[C@H](Oc2ccn3c(CC4CC4)nnc3c2C(F)(F)F)CC1 [Example 95, (1s,4s)-4-(3-(Cyclopropylmethyl)-8-(trifluoromethyl)-[1,2,4]triazolo[4,3-a]pyridin-7-yloxy)-1-(4-fluorophenyl)cyclohexanol, TFA salt] | – |
| – | Fc1ccc([C@H]2C[C@H](Oc3ccn4c(CC5CC5)nnc4c3C(F)(F)F)C2)cc1 [Example 96, 3-(Cyclopropylmethyl)-7-((1r,3r)-3-(4-fluorophenyl)cyclobutoxy)-8-(trifluoromethyl)-[1,2,4]triazolo[4,3-a]pyridine] | 0.4 nM |
| 1 nM | CO[C@]1(c2ccc(F)cc2)CC[C@H](Oc2ccn3c(CC(F)(F)F)nnc3c2C(F)(F)F)CC1 [Example 97, 7-((1s,4s)-4-(4-Fluorophenyl)-4-methoxycyclohexyloxy)-3-(2,2,2-trifluoroethyl)-8-(trifluoromethyl)-[1,2,4]triazolo[4,3-a]pyridine] | – |

| SMILES | EC50 [1] | EC50 (EC50 (nM), activity in mGluR2 cAMP assay) |
| --- | --- | --- |
| FC(F)(F)c1c(O[C@H]2C[C@H](c3ccccc3)C2)ccn2c(CC3CC3)nnc12 [Example 57, 3-(Cyclopropylmethyl)-7-((1r,3r)-3-phenylcyclobutoxy)-8-(trifluoromethyl)-[1,2,4]triazolo[4,3-a]pyridine] | 0.5 nM | – |
| COC1(c2ccc(F)cc2)CCC(Oc2ccn3c([C@H]4C[C@@H]4F)nnc3c2C(F)(F)F)CC1 (stereo partly drawn) [Example 90, 3-((1R,2S)-2-Fluorocyclopropyl)-7-((1s,4s)-4-(4-fluorophenyl)-4-methoxycyclohexyloxy)-8-(trifluoromethyl)-[1,2,4]triazolo[4,3-a]pyridine] | 19 nM | – |
| COC1(c2ccc(F)cc2)CCC(Oc2ccn3c([C@@H]4C[C@H]4F)nnc3c2C(F)(F)F)CC1 (stereo partly drawn) [Example 91, 3-((1S,2R)-2-Fluorocyclopropyl)-7-((1s,4s)-4-(4-fluorophenyl)-4-methoxycyclohexyloxy)-8-(trifluoromethyl)-[1,2,4]triazolo[4,3-a]pyridine] | 83 nM | – |
